Molecular target: T1, PDK1/PKCζ chimera (Homo sapiens, UniProt O15530, F157L/I118V/I119H/L113V/Q292A/R131K/T128Q/T148C/V124I/Y288G)
T1 construct: His (N); made in house; host or cells: insect cells
T1 sequence (O15530 50-359 L113V/I118V/I119H/V124I/T128Q/R131K/T148C/F157L/Y288G/Q292A): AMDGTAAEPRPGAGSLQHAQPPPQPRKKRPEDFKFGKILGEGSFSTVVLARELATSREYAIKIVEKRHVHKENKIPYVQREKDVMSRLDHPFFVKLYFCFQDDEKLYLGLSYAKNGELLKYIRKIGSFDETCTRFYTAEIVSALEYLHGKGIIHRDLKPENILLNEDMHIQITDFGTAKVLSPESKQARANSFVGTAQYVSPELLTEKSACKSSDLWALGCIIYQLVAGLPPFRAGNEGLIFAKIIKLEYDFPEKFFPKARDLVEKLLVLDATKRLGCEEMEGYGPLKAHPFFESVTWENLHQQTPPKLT
Assay: Activity assay with PDK1/PKCζ chimera
Assay type: biochemical
Details: PDK1 50-359/PKCζ chimera, PDK1[P-P-ζ]
Method: The protein kinase activity assays were performed essentially as previously described (Engel, M. et al. Embo J 25, 5469-80 (2006)). The assays were done in a 96-well format and 4 μl aliquots spotted on P81 phospho-cellulose papers (Whatman) using epMotion 5070 (Eppendorf), washed in 0.01% phosphoric acid, dried, and then exposed and analyzed using PhosphoImager technology (FLA-9000 Starion, Fujifilm). Atypical PKC (aPKC) activity assays were performed in a total volume of 20 μl containing 50 mM Tris-HCl pH 7.5, 0.05 mg/ml BSA, 0.1% (v/v) 2-mercaptoethanol, 10 mM MgCl2, 100 μM [γ^32P]ATP (5-50 cpm/pmol), 0.003% Brij, 30-50 ng of aPKC, and MBP (10 μM) or PSRtide (100 μM) as the substrate. After 15 min pre-incubation, the kinase reaction was started by addition of 6 μl of an ATP-Mg mix. When required, lipid activator (LA) phosphatidylserine (100 ng) or PKC lipid activator mix (1×) was included in the pre-incubation. Low basal activity and consistent activation of 1-592 PKCζ and 498 PKCζ by LA was obtained when the pre-incubation time was started by addition of the whole mix on the enzyme.
The substrates were T308tide (200 μM) for PDK1, Kemptide (100 μM) for PKA, and Crosstide (100 μM) for SGK, PKB, S6K, and PRK2. The activity assays for PKCα, β, θ, and δ were performed in the presence of PKC lipid activator mix (1×) using 3 μM of histone H1 as substrate.

Effect on PDK1/PKCζ chimera activity: inhibits
Compound: Cl.O=C(O)CC(Cc1nc2cc(-c3ccccc3)ccc2[nH]1)c1ccc(Cl)cc1 (stereo not shown) [PS168]
